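A five-concentration, 48-hour dose response in 96-well plates underlies each endpoint, interpolated linearly between surrounding concentrations. TGI is the concentration that stops growth completely.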
How the values were obtained:
Test in all cases: growth of human tumour cells (NCI), 48 h
ACHN renal = system: ACHN renal
SW-620 colon = system: SW-620 colon
KM12 colon = system: KM12 colon
MALME-3M melanoma = system: MALME-3M melanoma
OVCAR-8 ovarian = system: OVCAR-8 ovarian
SK-MEL-28 melanoma = system: SK-MEL-28 melanoma
UACC-62 melanoma = system: UACC-62 melanoma
CCRF-CEM leukemia = system: CCRF-CEM leukemia
SK-MEL-5 melanoma = system: SK-MEL-5 melanoma
BT-549 breast = system: BT-549 breast
PC-3 prostate = system: PC-3 prostate
SN12C renal = system: SN12C renal
SF-295 CNS = system: SF-295 CNS
UO-31 renal = system: UO-31 renal
TK-10 renal = system: TK-10 renal
NCI-H226 lung = system: NCI-H226 lung
CAKI-1 renal = system: CAKI-1 renal
OVCAR-3 ovarian = system: OVCAR-3 ovarian
SNB-19 CNS = system: SNB-19 CNS
SF-539 CNS = system: SF-539 CNS
A498 renal = system: A498 renal
SR leukemia = system: SR leukemia
NCI-H23 lung = system: NCI-H23 lung
NCI-H460 lung = system: NCI-H460 lung
MCF7 breast = system: MCF7 breast
HCT-15 colon = system: HCT-15 colon
NCI-H522 lung = system: NCI-H522 lung
UACC-257 melanoma = system: UACC-257 melanoma
M14 melanoma = system: M14 melanoma
HT29 colon = system: HT29 colon
EKVX NSCLC = system: EKVX NSCLC
IGROV1 ovarian = system: IGROV1 ovarian
SK-MEL-2 melanoma = system: SK-MEL-2 melanoma
HS 578T breast = system: HS 578T breast
HL-60(TB) leukemia = system: HL-60(TB) leukemia
NCI/ADR-RES ovarian = system: NCI/ADR-RES ovarian
MDA-MB-435 = system: MDA-MB-435
HCC-2998 colon = system: HCC-2998 colon
A549 NSCLC = system: A549 NSCLC
MDA-MB-231 breast = system: MDA-MB-231 breast
SF-268 CNS = system: SF-268 CNS
T-47D breast = system: T-47D breast
LOX IMVI melanoma = system: LOX IMVI melanoma
786-0 renal = system: 786-0 renal
RPMI-8226 leukemia = system: RPMI-8226 leukemia
K-562 leukemia = system: K-562 leukemia
COLO 205 colon = system: COLO 205 colon
DU-145 prostate = system: DU-145 prostate
HCT-116 colon = system: HCT-116 colon
U251 CNS = system: U251 CNS
HOP-62 NSCLC = system: HOP-62 NSCLC
OVCAR-5 ovarian = system: OVCAR-5 ovarian
RXF 393 renal = system: RXF 393 renal
SK-OV-3 ovarian = system: SK-OV-3 ovarian

SMILES: CCOC(=O)C(CO)c1nc2c([nH]c1=O)c(=O)n(C)c(=O)n2C (stereo unspecified)
- TGI (ACHN renal): > 100 µM
- TGI (SW-620 colon): > 100 µM
- TGI (KM12 colon): > 100 µM
- TGI (MALME-3M melanoma): > 100 µM
- TGI (OVCAR-8 ovarian): > 100 µM
- TGI (SK-MEL-28 melanoma): > 100 µM
- TGI (UACC-62 melanoma): > 100 µM
- TGI (CCRF-CEM leukemia): > 100 µM
- TGI (SK-MEL-5 melanoma): > 100 µM
- TGI (BT-549 breast): > 100 µM
- TGI (PC-3 prostate): > 100 µM
- TGI (SN12C renal): > 100 µM
- TGI (SF-295 CNS): > 100 µM
- TGI (UO-31 renal): > 100 µM
- TGI (TK-10 renal): > 100 µM
- TGI (NCI-H226 lung): > 100 µM
- TGI (CAKI-1 renal): > 100 µM
- TGI (OVCAR-3 ovarian): > 100 µM
- TGI (SNB-19 CNS): > 100 µM
- TGI (SF-539 CNS): > 100 µM
- TGI (A498 renal): > 100 µM
- TGI (SR leukemia): > 100 µM
- TGI (NCI-H23 lung): > 100 µM
- TGI (NCI-H460 lung): > 100 µM
- TGI (MCF7 breast): > 100 µM
- TGI (HCT-15 colon): > 100 µM
- TGI (NCI-H522 lung): > 100 µM
- TGI (UACC-257 melanoma): > 100 µM
- TGI (M14 melanoma): > 100 µM
- TGI (HT29 colon): > 100 µM
- TGI (EKVX NSCLC): > 100 µM
- TGI (IGROV1 ovarian): > 100 µM
- TGI (SK-MEL-2 melanoma): > 100 µM
- TGI (HS 578T breast): > 100 µM
- TGI (HL-60(TB) leukemia): > 100 µM
- TGI (NCI/ADR-RES ovarian): > 100 µM
- TGI (MDA-MB-435): > 100 µM
- TGI (HCC-2998 colon): > 100 µM
- TGI (A549 NSCLC): > 100 µM
- TGI (MDA-MB-231 breast): > 100 µM
- TGI (SF-268 CNS): > 100 µM
- TGI (T-47D breast): 60.8 µM
- TGI (LOX IMVI melanoma): > 100 µM
- TGI (786-0 renal): > 100 µM
- TGI (RPMI-8226 leukemia): > 100 µM
- TGI (K-562 leukemia): > 100 µM
- TGI (COLO 205 colon): > 100 µM
- TGI (DU-145 prostate): > 100 µM
- TGI (HCT-116 colon): > 100 µM
- TGI (U251 CNS): > 100 µM
- TGI (HOP-62 NSCLC): > 100 µM
- TGI (OVCAR-5 ovarian): > 100 µM

SMILES: Nc1ccc(S(=O)(=O)C23CC4CC(CC(C4)C2)C3)cc1
- TGI (ACHN renal): > 100 µM
- TGI (SW-620 colon): > 100 µM
- TGI (KM12 colon): > 100 µM
- TGI (MALME-3M melanoma): > 100 µM
- TGI (OVCAR-8 ovarian): > 100 µM
- TGI (SK-MEL-28 melanoma): > 100 µM
- TGI (UACC-62 melanoma): > 100 µM
- TGI (CCRF-CEM leukemia): > 100 µM
- TGI (SK-MEL-5 melanoma): > 100 µM
- TGI (BT-549 breast): > 100 µM
- TGI (PC-3 prostate): > 100 µM
- TGI (SN12C renal): > 100 µM
- TGI (SF-295 CNS): > 100 µM
- TGI (UO-31 renal): > 100 µM
- TGI (TK-10 renal): > 100 µM
- TGI (NCI-H226 lung): > 100 µM
- TGI (CAKI-1 renal): > 100 µM
- TGI (OVCAR-3 ovarian): > 100 µM
- TGI (SNB-19 CNS): > 100 µM
- TGI (SF-539 CNS): > 100 µM
- TGI (RXF 393 renal): 79.4 µM
- TGI (A498 renal): > 100 µM
- TGI (SR leukemia): > 100 µM
- TGI (NCI-H23 lung): > 100 µM
- TGI (NCI-H460 lung): > 100 µM
- TGI (MCF7 breast): > 100 µM
- TGI (HCT-15 colon): > 100 µM
- TGI (NCI-H522 lung): > 100 µM
- TGI (UACC-257 melanoma): > 100 µM
- TGI (M14 melanoma): > 100 µM
- TGI (HT29 colon): > 100 µM
- TGI (EKVX NSCLC): > 100 µM
- TGI (IGROV1 ovarian): > 100 µM
- TGI (SK-MEL-2 melanoma): > 100 µM
- TGI (HS 578T breast): > 100 µM
- TGI (HL-60(TB) leukemia): > 100 µM
- TGI (NCI/ADR-RES ovarian): > 100 µM
- TGI (MDA-MB-435): > 100 µM
- TGI (HCC-2998 colon): > 100 µM
- TGI (A549 NSCLC): > 100 µM
- TGI (MDA-MB-231 breast): > 100 µM
- TGI (SF-268 CNS): > 100 µM
- TGI (T-47D breast): > 100 µM
- TGI (LOX IMVI melanoma): > 100 µM
- TGI (786-0 renal): > 100 µM
- TGI (RPMI-8226 leukemia): > 100 µM
- TGI (K-562 leukemia): > 100 µM
- TGI (COLO 205 colon): > 100 µM
- TGI (DU-145 prostate): > 100 µM
- TGI (HCT-116 colon): > 100 µM
- TGI (SK-OV-3 ovarian): > 100 µM
- TGI (U251 CNS): > 100 µM
- TGI (HOP-62 NSCLC): > 100 µM
- TGI (OVCAR-5 ovarian): > 100 µM
